In assay [1] the test system is UFH. The assay is described as follows: FXa amidolytic assay (Example 10), UFH. The settings on record: read-out: Heparin FXa uM EC50; UFH 0.03 units/mL; human antithrombin, bovine Factor Xa.
Description: (§1) Two μl of test agent are added (range between 0.01 and 23 ug/ml) and incubated for 5 minutes at 23° C. Bovine Factor Xa was added to a final concentration of 0.636 nkat/mL and incubated for a further 10 minutes at 23° C.
Assay [2] has as its system enoxaparin. Kind of assay: FXa amidolytic assay (Example 10), enoxaparin. The following applies: read-out: Enox FXa EC50; enoxaparin 0.1 ug/ml; human antithrombin, bovine Factor Xa.
Description: as §1
Assay [3] concerns fondaparinux. The assay is described as follows: FXa amidolytic assay (Example 10), fondaparinux. The settings on record: read-out: Fondap FXa EC50; fondaparinux 0.02 μg/mL; human antithrombin, bovine Factor Xa.
Description: as §1
In assay [4] the test system is tinzaparin. The assay is described as follows: FXa amidolytic assay (Example 10), tinzaparin. The settings on record: read-out: Tinzap FXa EC50; tinzaparin 0.1 ug/ml; human antithrombin, bovine Factor Xa.
Description: as §1
For assay [5], the system named is Unfractionated heparin. The assay is described as follows: aPTT clotting assay, UFH 0.4 U/mL in plasma (Example 10). It is filed as biochemical. The settings on record: unfractionated heparin 0.4 U/mL in plasma; aPTT clotting. The protocol:
aPTT clotting Assay: Unfractionated heparin was mixed with plasma at a final concentration of 0.4 U/mL (or concentration which increases aPTT time to between 120 and 300 seconds). […] The ACL Elite Hemostasis analyzer (Beckman Coulter™) was used to add aPTT reagent (HemosIL SynthASil) to supplemented plasma. Clotting was initiated by addition of CaCl2 and time to clot was recorded.

The subject of assay [6] is isolated human erythrocytes. The assay is described as follows: cells. It is filed as cell-based. The following applies: human RBC, 1 hour at 37° C. The protocol:
Hemolysis assay: Cytotoxicity was also evaluated in a hemolysis assay using isolated human erythrocytes. Pooled whole human blood was centrifuged to separate the red blood cells (RBC). The isolated RBCs were rinsed and diluted in Tris-buffered saline (TBS buffer, pH 7.4) to obtain a 0.22% RBC stock suspension. Serial two-fold dilutions of test agent were assayed over a concentration range of 1000 to 0.48 μg/ml with shaking for 1 hour at 37° C. At the conclusion of the incubation time, samples were centrifuged and 30 μl of the supernatant was added to 100 μl H2O. OD405 measurements were read for hemoglobin concentration. The bee venom peptide melittin was used as a positive control. EC50 values were determined using a four parameter logistic equation: Y=Bottom+(Top-Bottom)/(1+10̂((LogEC50-X)*HillSlope)).

The structures appear in SMILES notation. Values after ≈ are worked out from the molar mass of the structure shown.

Consider nine compounds from patent publication US20110178104A1, “Anti-Heparin Compounds” (POLYMEDIX INC., priority 2010, published 2011).

A word on the EC50: it is the concentration at which the effect is half-maximal.

Consider `COc1cc(OC)c(C(=O)N[C@H]2CC[C@@H](NC(=O)c3cc(C(=O)NCCN)c(OCCCCCN)cc3OCCCCCN)CC2)cc1C(=O)N[C@H]1CC[C@@H](NC(=O)c2cc(C(=O)NCCN)c(OCCCCCN)cc2OCCCCCN)CC1` [Compound 367], for which the EC50 in assay [1] turned out to be 0.085 µM; in assay [2] it was 42 nM; in assay [3], 514 nM; in assay [4] it was 106 nM; in assay [5] it was 1270 nM.

Take `COc1cc(OC)c(C(=O)N[C@H]2CC[C@@H](NC(=O)c3cc(C(=O)N[C@H]4CC[C@@H](N=C(N(C)C)N(C)C)CC4)c(OC)cc3OC)CC2)cc1C(=O)NCCN` [Compound 382]: the EC50 is over 20 µM in assay [1]; over 5000 nM in assay [2]; over 10000 nM in assay [3]; over 5000 nM in assay [4]; over 10000 nM in assay [5].

For the compound `COc1cc(OC)c(C(=O)N[C@H]2CC[C@@H](NC(=O)c3cc(C(=O)N[C@H]4CC[C@@H](N)CC4)c(OC)cc3OC)CC2)cc1C(=O)NCCN` [Compound 383], the EC50 in assay [1] is over 20 µM; in assay [2], over 5000 nM; in assay [3] it was over 10000 nM; in assay [4], over 5000 nM; in assay [5] it was over 10000 nM.

With `COc1ccc(NC(=O)[C@H](CCCCCN)NC(=O)c2cc(NC(=O)[C@H](CCCCCN)NC(=O)c3cc(NC(=O)[C@H](CCCCCN)NC(=O)c4cc(NC(=O)[C@@H](N)CCCCCN)ccc4OC)ccc3OC)ccc2OC)cc1C(N)=O` [Compound 236], the EC50 was 0.364 µM in assay [1]; 99 nM in assay [2]; over 12600 nM in assay [3]; 396 nM in assay [4]; 1930 nM in assay [5].

On to `COc1ccc(NC(=O)[C@@H](CCCNC(=N)N)NC(=O)c2cc(NC(=O)[C@@H](CCCNC(=N)N)NC(=O)c3cc(NC(=O)[C@@H](CCCNC(N)=O)NC(=O)c4cc(NC(=O)[C@H](N)CCCNC(N)=O)ccc4OC)ccc3OC)ccc2OC)cc1C(N)=O` [Compound 374], for which the EC50 was determined as 0.677 µM in assay [1]; 157 nM in assay [2]; 1820 nM in assay [3]; 114 nM in assay [4]; 2420 nM in assay [5].

With `CNCNC(=O)c1cccc(C(=O)N[C@H]2CC[C@H](NC(=O)c3cc(C(=O)N[C@H]4CC[C@H](NC(=O)c5cccc(C(=O)NCCN)c5)CC4)c(OC)cc3OC)CC2)c1` [Compound 366], the 50% effective concentration (EC50) in assay [1] is 15.5 µM; in assay [2], over 5000 nM; in assay [3], over 10000 nM; in assay [4], over 5000 nM; in assay [5], over 10000 nM.

Turning to `COc1cc(OC)c(C(=O)NCCNC(=O)c2cc(C(=O)NCCNC(=O)c3cc(C(=O)NCCN)c(OC)cc3OC)c(OC)cc2OC)cc1C(=O)NCCN` [Compound 386], the EC50 in assay [1] is 19.4 µM; in assay [2], over 5000 nM; in assay [3], over 10000 nM; in assay [4] it was 7240 nM.

On to `COc1ccc(NC(=O)[C@@H](CCCNC(=N)N)NC(=O)c2cc(NC(=O)[C@@H](CCCNC(=N)N)NC(=O)c3cc(NC(=O)[C@@H](CCCNC(=N)N)NC(=O)c4cc(NC(=O)[C@H](N)CCCNC(=N)N)ccc4OC)ccc3OCC(=O)O)ccc2OC)cc1C(=O)N[C@H](Cc1c[nH]c2ccccc12)C(N)=O` [Compound 307], for which the EC50 in assay [6] (Homo sapiens, Erythrocyte, 1 h, read-out: Hemolysis EC50) was about 50 µg/mL (≈ 34 µM); in assay [2], 120 nM; in assay [3], 118 nM; in assay [4], 118 nM; in assay [5] it was 3780 nM.

For `COc1ccc(NC(=O)[C@H](CCCNC(=N)N)NC(=O)c2cc(NC(=O)[C@H](CCCNC(=N)N)NC(=O)c3cc(NC(=O)[C@H](CCCNC(=N)N)NC(=O)c4cc(NC(C)=O)ccc4OC)ccc3OC)ccc2OC)cc1C(N)=O` [Compound 298], the “Hemolysis EC50” value in assay [6] is “no significant decrease”. The EC50 in assay [2] is 201 nM; in assay [3], 334 nM; in assay [4] it was 167 nM; in assay [5], 2060 nM.
